Test results taken from PubChem BioAssay AID1645864 (Buhrlage Lab, Dana-Farber Cancer Institute and Novartis …, 2021).
Active and inactive are the calls of the source.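 How the source made its calls: active means maximal inhibition of USP17 at or above 30% in the confirmation dose-response, a value not among the printed readouts; inactive means the rest.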

These compounds were tested against Ubiquitin carboxyl-terminal hydrolase 17-like protein 5 (Homo sapiens) (UniProt A8MUK1) (assay: ubiquitin-specific protease 17 inhibitors, concentration series, biochemical, verification of primary actives (AID 1645864)). Conditions: purified USP17, ubiquitin-rhodamine cleavage fluorescence, 3 h.
Sequence of Ubiquitin carboxyl-terminal hydrolase 17-like protein 5 (Homo sapiens) (A8MUK1 whole entry, looked up): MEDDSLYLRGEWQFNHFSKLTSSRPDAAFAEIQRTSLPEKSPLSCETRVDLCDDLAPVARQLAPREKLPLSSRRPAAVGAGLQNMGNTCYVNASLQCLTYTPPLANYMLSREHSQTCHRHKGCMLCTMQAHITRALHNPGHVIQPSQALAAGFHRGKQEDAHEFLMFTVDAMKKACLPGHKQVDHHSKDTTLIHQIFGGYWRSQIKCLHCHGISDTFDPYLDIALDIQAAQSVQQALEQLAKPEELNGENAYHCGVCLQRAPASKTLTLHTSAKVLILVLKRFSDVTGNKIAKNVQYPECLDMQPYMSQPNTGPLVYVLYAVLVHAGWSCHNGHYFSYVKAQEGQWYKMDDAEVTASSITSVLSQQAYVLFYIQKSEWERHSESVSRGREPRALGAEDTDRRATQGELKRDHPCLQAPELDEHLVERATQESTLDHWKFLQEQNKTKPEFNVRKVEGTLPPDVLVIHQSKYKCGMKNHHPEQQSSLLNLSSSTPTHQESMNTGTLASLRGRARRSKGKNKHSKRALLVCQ

Q: With `N#Cc1ccc(NC(=O)c2ccc(S(=O)(=O)N3CCCCC3)cc2)cc1` as the compound, how does the IC50 read?
A: 11.6 µM

Q: `CCS(=O)(=O)N1CCc2cc(C(=O)Nc3ccc4c(c3)OCCO4)ccc21` was tested. Which IC50 did it give?
A: > 50 µM (inactive)

Q: With `O=C(Cn1cncc(-c2nc(-c3ccccc3)cs2)c1=O)NC1CCCC1` as the compound, how does the IC50 read?
A: 39.5 µM

Q: Which IC50 does the source give for `Cc1cccc(NC(=O)Cn2c(-c3cnccn3)nc(C)c(C)c2=O)c1C` here?
A: > 50 µM (inactive)

Q: `CC1=C(c2ccc(F)cc2)S(=O)(=O)NC1=NCC(=O)Nc1ccc(F)cc1F` was tested. Which IC50 did it give?
A: 25.9 µM

Q: For `O=C(CC1Oc2ccccc2NC1=O)Nc1ccccc1Br` (centres undefined), which IC50 is on record?
A: 33.4 µM

Q: Which IC50 does the source give for `CCCc1c(C(=O)O)c(O[C@H]2O[C@H](C)[C@@H](OC)[C@H](OC)[C@@H]2OC)cc2cc3c(c(O)c12)C(=O)c1c(O)cc(O[C@@H]2O[C@@H](C)[C@H](O[C@H]4O[C@H](C)[C@@H](OC)[C@H](OC)[C@@H]4O)[C@@H](OC)[C@H]2O)cc1C3=O` here?
A: > 50 µM (inactive)

Q: How did the IC50 turn out when `O=C(NCCc1ccccc1F)c1cn2cc(Cl)ccc2n1` was run?
A: 28.7 µM

Q: Which IC50 does the source give for `O=C(NCc1ccc2c(c1)OCO2)c1nc(-c2ccccc2)n(-c2ccccc2)n1` here?
A: > 50 µM (inactive)

Q: How did the IC50 turn out when `O=C1N(Cc2ccc(F)cc2)CCN1c1ccc2c(c1)CCC2` was run?
A: > 50 µM (inactive)

Q: With `O=C(NCc1ccccc1)Nc1cccc2ccccc12` as the compound, how does the IC50 read?
A: 34 µM

Q: For `COCCCn1c(C(=O)Nc2ccccc2OC)cc2c(=O)n3ccccc3nc21`, which IC50 is on record?
A: 12.4 µM

Q: `Cc1cc(C)cc(-n2cnc3cc(C(=O)NCCC4=CCCCC4)ccc32)c1` was tested. Which IC50 did it give?
A: > 50 µM (inactive)

Q: For `CC1CCN(c2nnc(-c3nc(C4CC4)no3)c3ccccc23)CC1`, which IC50 is on record?
A: > 50 µM (inactive)

Q: `CN1CCN(C(=O)c2cc(-c3ccn(CC4CC4)n3)n3ccccc23)CC1` was tested. Which IC50 did it give?
A: > 50 µM (inactive)

Q: `CCOC(=O)c1cc2c(ccn2C)n1CC(=O)N1CCc2ccccc2C1` was tested. Which IC50 did it give?
A: > 50 µM (inactive)

Q: How did the IC50 turn out when `Cc1cc(Cl)ccc1Nc1nc(Nc2cccc(F)c2)nc2nccnc12` was run?
A: > 50 µM (inactive)

Q: With `COc1ccc(COC(=O)C2=C(C)NC(=O)CC2c2cccc([N+](=O)[O-])c2)cc1` (centres undefined) as the compound, how does the IC50 read?
A: > 50 µM (inactive)

Q: `Cc1cc(-c2nnc(SCC(=O)Nc3ccc(Br)c(C)c3)n2N)n[nH]1` was tested. Which IC50 did it give?
A: 18.7 µM

Q: With `O=S(=O)(c1ccccc1)N1CCN2Cc3ccccc3N(Cc3ccccc3)CC2C1` (centres undefined) as the compound, how does the IC50 read?
A: > 50 µM (inactive)

Q: `C=C(NC(=O)C(=C)NC(=O)c1csc(C2=N[C@@H]3c4csc(n4)[C@H]4NC(=O)c5csc(n5)[C@H]([C@](C)(O)[C@@H](C)O)NC(=O)C5CSC(=N5)/C(=C/C)NC(=O)C([C@@H](C)O)NC(=O)c5csc(n5)[C@]3(CC2)NC(=O)[C@H](C)NC(=O)C(=C)NC(=O)[C@H](C)NC(=O)C([C@@H](C)CC)NC2C=Cc3c(C(C)O)cc(nc3[C@H]2O)C(=O)OC4C)n1)C(N)=O` (some centres undefined) was tested. Which IC50 did it give?
A: > 50 µM (inactive)

Q: `O=c1ccc(-c2noc(Cc3cccc(Cl)c3)n2)c[nH]1` was tested. Which IC50 did it give?
A: > 50 µM (inactive)

Q: For `Fc1cccc(Cn2cc(-c3noc(-c4cccnc4)n3)nn2)c1`, which IC50 is on record?
A: 38.3 µM

Q: Which IC50 does the source give for `COc1ccc(C(=O)CSc2ccc3nnc(CCNC(=O)c4ccc(OC)cc4)n3n2)cc1` here?
A: > 50 µM (inactive)

Q: With `Cc1cnnn1-c1ccc(C(=O)Nc2cc(Cl)ccc2Cl)cc1` as the compound, how does the IC50 read?
A: 29.2 µM

Q: Which IC50 does the source give for `O=c1c2cnc(N3CCOCC3)nc2ccn1CCc1ccccc1` here?
A: 18 µM

Q: How did the IC50 turn out when `CCn1ccc2c(cc(C(=O)Nc3cccc(OC)c3)n2C)c1=O` was run?
A: > 50 µM (inactive)

Q: Which IC50 does the source give for `O=C(COC(=O)c1cc(Cl)c2c(c1)OCO2)Nc1ccc2[nH]c(=O)[nH]c2c1` here?
A: 4.92 µM

Q: With `COc1cccc2c1NC(=O)C21CCN(C(=O)Nc2cccc(C)c2)CC1` as the compound, how does the IC50 read?
A: 20.1 µM

Q: How did the IC50 turn out when `O=C1CC(NS(=O)(=O)c2ccc3ccccc3c2)CN1c1cccc(F)c1` (centres undefined) was run?
A: 47.6 µM

Q: With `O=C(CCCn1c(=O)[nH]c2cc(Cl)ccc2c1=O)N1CCc2ccccc2C1` as the compound, how does the IC50 read?
A: 21.5 µM

Q: For `COC(=O)c1cc(C)sc1NC(=O)c1cccc(OC)c1OC`, which IC50 is on record?
A: > 50 µM (inactive)

Q: With `CCN(C(=O)c1cc2c(Cl)nc3ccccc3c2s1)c1ccccc1F` as the compound, how does the IC50 read?
A: 16.1 µM

Q: `COc1ccc(-n2c(SCC(=O)c3ccc(F)cc3)nnc2-c2cccnc2)cc1` was tested. Which IC50 did it give?
A: 23.8 µM

Q: For `COc1ccccc1NC(=O)c1nn(-c2cccc(F)c2)c(OC)cc1=O`, which IC50 is on record?
A: 44.1 µM

Q: With `Cc1cccc(NC(=O)CSc2ccc(-n3cnc(-c4ccccc4)c3)nn2)c1` as the compound, how does the IC50 read?
A: 6.17 µM

Q: With `O=C(OCc1ccc(F)cc1)c1ccc2ccccc2n1` as the compound, how does the IC50 read?
A: > 50 µM (inactive)

Q: For `O=C(NCc1ccc(-c2nc3cnccc3o2)cc1)c1cc2ccccc2o1`, which IC50 is on record?
A: 3.29 µM

Q: How did the IC50 turn out when `O=C(CCSc1ccc(Cl)cc1)c1cccs1` was run?
A: 17.1 µM

Q: Which IC50 does the source give for `Cc1ccc(-n2cc(C(=O)NCc3cccnc3)nn2)cc1C` here?
A: 22.3 µM

Q: With `Cc1ccc(O)c(-c2cc(C(=O)Nc3ccccc3Cl)[nH]n2)c1` as the compound, how does the IC50 read?
A: 8.32 µM

Q: With `Cc1cc(C(=O)N2CCOC3(CC=CCN(CCc4ccccc4)C3=O)C2)n2nccc2n1` (centres undefined) as the compound, how does the IC50 read?
A: > 50 µM (inactive)

Q: With `Cc1c(-c2nnc(-c3ccccn3)o2)nnn1-c1cccc(Cl)c1` as the compound, how does the IC50 read?
A: 35.1 µM

Q: For `O=C(COc1cccc2c1CCN(Cc1cccnc1)C2=O)Nc1ccc2c(c1)OCCO2`, which IC50 is on record?
A: 35.2 µM

Q: For `O=C(c1cc(-c2ccc(Cl)cc2)n[nH]1)N1CCN(C(=O)c2ccco2)CC1`, which IC50 is on record?
A: 32.2 µM

Q: `O=C(COC(=O)c1ccc(CN2CCCC2=O)cc1)c1ccc2c(c1)OCCO2` was tested. Which IC50 did it give?
A: > 50 µM (inactive)

Q: For `Cc1ccc(-c2nc(NC(=O)Nc3ccc(Cl)cc3)sc2C)cc1`, which IC50 is on record?
A: 19.6 µM

Q: With `O=C1CC(c2ccco2)Cc2[nH]c(=O)c(-c3nc(-c4ccc(Cl)cc4)cs3)cc21` (centres undefined) as the compound, how does the IC50 read?
A: > 50 µM (inactive)

Q: For `COc1ccc2nc(-c3ccc(NC(=O)c4cccc(OC)c4OC)cc3)cn2n1`, which IC50 is on record?
A: 2.13 µM
